This is an account of results in BindingDB's records for doi:10.1021/acschembio.7b00041 (Bc Cancer Agency, 2017).

What all share (assay): ATPase enzyme assay
The target of assay [1] is Eukaryotic initiation factor 4A-I (Homo sapiens, UniProt P60842). As to the method:
(§1) Inhibitory activity was assessed under the following conditions: 350 uM ATP/1.5 ug mL−1 RNA indicated by black; 35 uM ATP/1.5 ug mL−1 RNA indicated by red; 3.5 uM ATP/1.5 ug mL−1 RNA indicated by blue; 35 uM ATP/60 ug mL−1 RNA indicated by green (n = 4, mean +/- standard deviation).

Assay [2] deals with Eukaryotic initiation factor 4A-II (Homo sapiens, UniProt Q14240). As to the method: as §1
The target of assay [3] is Eukaryotic initiation factor 4A-III (Homo sapiens, UniProt P38919). As to the method: as §1
Assay [4] concerns the target U5 small nuclear ribonucleoprotein 200 kDa helicase (Homo sapiens, UniProt O75643). The protocol:
as §1

The target of assay [5] is T1, ATP-dependent RNA helicase DHX29 (Homo sapiens, UniProt Q7Z478).
T1 sequence (Q7Z478 whole entry): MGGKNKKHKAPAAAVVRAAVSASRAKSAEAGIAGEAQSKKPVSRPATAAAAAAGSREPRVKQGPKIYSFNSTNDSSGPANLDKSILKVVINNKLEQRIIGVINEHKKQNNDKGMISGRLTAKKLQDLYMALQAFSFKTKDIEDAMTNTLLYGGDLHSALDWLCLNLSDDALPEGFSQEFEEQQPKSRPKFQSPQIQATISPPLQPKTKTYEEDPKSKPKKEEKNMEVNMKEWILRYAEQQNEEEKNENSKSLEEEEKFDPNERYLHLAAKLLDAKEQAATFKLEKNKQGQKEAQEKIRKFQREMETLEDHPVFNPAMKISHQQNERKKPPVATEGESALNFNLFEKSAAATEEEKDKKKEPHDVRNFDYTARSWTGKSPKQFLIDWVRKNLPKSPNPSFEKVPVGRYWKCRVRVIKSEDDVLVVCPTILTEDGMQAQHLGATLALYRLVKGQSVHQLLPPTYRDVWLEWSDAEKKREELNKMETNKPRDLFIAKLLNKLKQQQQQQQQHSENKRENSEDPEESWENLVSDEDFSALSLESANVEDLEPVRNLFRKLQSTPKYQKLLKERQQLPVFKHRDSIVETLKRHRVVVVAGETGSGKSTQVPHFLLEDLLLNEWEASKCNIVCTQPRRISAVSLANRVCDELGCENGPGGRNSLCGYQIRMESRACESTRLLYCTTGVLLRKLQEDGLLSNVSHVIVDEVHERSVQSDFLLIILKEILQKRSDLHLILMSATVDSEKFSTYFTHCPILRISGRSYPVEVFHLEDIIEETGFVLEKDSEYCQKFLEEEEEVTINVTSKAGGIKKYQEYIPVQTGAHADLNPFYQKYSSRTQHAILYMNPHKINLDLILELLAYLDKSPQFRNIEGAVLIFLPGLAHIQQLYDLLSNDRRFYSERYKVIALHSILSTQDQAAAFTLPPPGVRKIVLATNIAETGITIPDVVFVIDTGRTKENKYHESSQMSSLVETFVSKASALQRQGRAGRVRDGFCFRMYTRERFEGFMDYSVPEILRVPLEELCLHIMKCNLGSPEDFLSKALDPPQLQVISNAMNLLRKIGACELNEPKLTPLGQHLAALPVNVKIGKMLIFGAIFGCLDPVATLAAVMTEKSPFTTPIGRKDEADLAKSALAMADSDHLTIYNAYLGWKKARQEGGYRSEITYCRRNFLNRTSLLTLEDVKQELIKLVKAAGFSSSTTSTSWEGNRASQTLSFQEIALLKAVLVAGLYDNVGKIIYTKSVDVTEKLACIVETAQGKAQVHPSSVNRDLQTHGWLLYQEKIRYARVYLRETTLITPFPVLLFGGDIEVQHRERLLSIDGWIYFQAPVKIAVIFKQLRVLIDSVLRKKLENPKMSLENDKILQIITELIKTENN
As to the method: as §1

The structures appear in SMILES notation. Bounds are passed on as bounds.

Sequence of Eukaryotic initiation factor 4A-III (P38919 whole entry): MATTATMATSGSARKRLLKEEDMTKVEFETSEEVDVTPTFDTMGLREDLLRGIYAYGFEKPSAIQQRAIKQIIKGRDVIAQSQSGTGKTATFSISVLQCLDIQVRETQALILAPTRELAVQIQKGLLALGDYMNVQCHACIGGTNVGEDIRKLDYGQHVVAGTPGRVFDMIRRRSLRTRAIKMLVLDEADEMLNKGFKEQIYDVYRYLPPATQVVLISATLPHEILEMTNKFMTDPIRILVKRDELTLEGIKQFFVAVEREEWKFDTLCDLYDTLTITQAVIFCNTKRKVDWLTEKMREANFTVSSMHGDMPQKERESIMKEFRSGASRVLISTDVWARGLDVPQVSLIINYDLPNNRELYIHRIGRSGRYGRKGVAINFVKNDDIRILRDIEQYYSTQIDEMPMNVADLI
Sequence of Eukaryotic initiation factor 4A-II (Q14240 whole entry): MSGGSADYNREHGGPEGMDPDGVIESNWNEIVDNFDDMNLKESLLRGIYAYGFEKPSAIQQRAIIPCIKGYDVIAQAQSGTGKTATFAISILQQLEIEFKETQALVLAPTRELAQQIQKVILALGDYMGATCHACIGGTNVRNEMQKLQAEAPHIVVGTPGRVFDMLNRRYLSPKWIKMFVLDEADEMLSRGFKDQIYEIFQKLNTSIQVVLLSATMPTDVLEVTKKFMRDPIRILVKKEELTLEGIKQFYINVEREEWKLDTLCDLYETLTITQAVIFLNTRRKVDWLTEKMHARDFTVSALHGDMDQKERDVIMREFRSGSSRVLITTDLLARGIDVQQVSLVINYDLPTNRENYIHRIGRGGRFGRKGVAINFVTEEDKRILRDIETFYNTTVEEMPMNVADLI
Sequence of U5 small nuclear ribonucleoprotein 200 kDa helicase (O75643 whole entry): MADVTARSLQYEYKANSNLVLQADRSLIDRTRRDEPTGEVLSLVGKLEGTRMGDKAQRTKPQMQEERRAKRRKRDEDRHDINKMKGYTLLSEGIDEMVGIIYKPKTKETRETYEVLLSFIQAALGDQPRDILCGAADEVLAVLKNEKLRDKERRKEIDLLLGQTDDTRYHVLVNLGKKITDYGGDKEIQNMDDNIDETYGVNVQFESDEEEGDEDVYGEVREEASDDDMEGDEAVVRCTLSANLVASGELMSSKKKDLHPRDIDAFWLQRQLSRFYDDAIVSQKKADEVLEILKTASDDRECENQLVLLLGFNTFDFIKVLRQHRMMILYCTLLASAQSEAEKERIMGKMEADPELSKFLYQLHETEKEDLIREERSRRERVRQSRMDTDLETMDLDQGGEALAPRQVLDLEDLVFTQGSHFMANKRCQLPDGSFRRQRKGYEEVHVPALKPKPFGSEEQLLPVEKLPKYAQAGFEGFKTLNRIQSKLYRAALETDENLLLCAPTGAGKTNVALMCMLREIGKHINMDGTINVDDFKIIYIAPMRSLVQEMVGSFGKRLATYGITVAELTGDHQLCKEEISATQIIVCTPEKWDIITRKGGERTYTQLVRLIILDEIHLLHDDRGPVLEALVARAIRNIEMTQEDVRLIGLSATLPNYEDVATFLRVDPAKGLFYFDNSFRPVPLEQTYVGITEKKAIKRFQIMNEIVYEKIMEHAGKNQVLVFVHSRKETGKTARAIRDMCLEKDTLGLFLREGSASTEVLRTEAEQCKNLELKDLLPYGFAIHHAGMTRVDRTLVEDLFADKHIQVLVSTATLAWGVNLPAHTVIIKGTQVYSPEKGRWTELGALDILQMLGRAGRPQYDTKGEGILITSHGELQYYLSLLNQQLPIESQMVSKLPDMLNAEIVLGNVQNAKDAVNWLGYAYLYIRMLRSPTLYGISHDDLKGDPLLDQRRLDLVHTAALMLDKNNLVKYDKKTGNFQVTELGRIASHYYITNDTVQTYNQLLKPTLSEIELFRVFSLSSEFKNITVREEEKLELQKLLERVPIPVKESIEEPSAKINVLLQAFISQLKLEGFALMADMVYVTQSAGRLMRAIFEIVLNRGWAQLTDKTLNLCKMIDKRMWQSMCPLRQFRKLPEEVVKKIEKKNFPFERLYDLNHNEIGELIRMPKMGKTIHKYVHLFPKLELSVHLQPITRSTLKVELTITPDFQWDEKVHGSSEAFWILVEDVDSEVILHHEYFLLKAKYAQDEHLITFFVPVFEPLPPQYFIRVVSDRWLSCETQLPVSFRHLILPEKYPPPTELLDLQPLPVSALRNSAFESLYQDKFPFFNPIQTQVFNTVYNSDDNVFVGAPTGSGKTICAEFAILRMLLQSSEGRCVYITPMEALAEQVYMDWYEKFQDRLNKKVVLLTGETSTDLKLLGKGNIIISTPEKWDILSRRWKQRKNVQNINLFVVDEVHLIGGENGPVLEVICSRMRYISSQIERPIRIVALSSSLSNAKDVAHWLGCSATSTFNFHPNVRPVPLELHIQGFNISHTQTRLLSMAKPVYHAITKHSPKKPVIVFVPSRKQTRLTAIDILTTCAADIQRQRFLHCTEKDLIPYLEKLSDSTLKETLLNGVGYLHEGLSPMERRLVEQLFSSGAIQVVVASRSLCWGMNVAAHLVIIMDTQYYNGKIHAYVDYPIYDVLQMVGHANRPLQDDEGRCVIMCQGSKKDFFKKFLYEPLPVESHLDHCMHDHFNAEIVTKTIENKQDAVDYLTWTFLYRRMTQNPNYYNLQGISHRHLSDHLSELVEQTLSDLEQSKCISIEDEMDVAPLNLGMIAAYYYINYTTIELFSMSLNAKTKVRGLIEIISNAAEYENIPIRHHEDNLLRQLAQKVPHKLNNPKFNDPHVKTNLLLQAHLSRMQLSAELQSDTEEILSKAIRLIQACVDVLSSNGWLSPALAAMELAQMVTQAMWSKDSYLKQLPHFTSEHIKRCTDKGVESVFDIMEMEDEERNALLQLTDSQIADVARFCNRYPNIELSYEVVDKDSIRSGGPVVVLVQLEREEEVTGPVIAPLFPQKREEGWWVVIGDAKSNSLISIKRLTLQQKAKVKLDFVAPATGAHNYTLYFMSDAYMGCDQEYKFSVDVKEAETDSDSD
Sequence of Eukaryotic initiation factor 4A-I (P60842 whole entry): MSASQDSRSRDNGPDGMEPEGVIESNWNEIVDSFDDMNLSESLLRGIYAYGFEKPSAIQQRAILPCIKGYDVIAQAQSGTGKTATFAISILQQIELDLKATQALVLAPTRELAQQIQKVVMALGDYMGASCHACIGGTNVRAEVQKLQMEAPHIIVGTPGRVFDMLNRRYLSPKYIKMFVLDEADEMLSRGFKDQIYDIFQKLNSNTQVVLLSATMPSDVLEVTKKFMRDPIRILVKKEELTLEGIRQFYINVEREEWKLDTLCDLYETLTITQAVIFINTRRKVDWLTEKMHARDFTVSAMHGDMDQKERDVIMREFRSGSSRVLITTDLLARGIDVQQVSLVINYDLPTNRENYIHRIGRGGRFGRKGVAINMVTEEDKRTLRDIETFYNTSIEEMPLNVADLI

With `O=C(c1cnn2cc(Br)ccc12)N1CCN(C(=O)c2ccc(Br)cc2)[C@@H](c2ccc(Cl)cc2)C1` [eIF4A3 inhibitor, 2], the concentration for half-maximal inhibition (IC50) is over 100 µM in assay [1]; over 100 µM in assay [2]; 0.11 µM in assay [3]; over 100 µM in assay [4]; over 100 µM in assay [5].
